Series [1] addresses T1, 5-hydroxytryptamine receptor 7 (Homo sapiens, UniProt P34969). The experiment in a line: Displacement of [3H]-5-CT from human 5HT7 receptor expressed in HEK293 cells measured after 1 hr by microbeta counting method. Type of series: cell-based. For orientation: Loss of bound radioactivity is the signal in a displacement assay; it reports binding, not function.
The target of series [2] is T2, 5-hydroxytryptamine receptor 1A (Homo sapiens, UniProt P08908).
T2 sequence (P08908 whole entry): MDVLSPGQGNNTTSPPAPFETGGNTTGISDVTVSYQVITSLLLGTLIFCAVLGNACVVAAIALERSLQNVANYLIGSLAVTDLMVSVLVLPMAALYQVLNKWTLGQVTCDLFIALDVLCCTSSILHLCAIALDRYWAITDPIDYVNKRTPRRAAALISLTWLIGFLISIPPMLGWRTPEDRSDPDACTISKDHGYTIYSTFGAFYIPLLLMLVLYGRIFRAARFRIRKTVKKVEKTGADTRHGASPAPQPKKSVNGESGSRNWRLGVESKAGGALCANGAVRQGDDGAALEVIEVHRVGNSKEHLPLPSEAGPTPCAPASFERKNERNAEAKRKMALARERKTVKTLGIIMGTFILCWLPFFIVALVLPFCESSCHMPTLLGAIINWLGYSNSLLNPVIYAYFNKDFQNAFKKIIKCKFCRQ
The series can be described thus: Displacement of [3H]8-OH-DPAT from human 5HT1A receptor expressed in HEK293 cells measured after 1 hr by microbeta counting method. The class given is cell-based.

Series [3] has as its target 3',5'-cyclic-AMP phosphodiesterase 4B (Homo sapiens, UniProt Q07343). The series can be described thus: Inhibition of recombinant human PDE4B expressed in Sf9 cells measured after 10 mins by luminescence based assay.
For series [4], the target named is High affinity 3',5'-cyclic-AMP phosphodiesterase 7A (Homo sapiens, UniProt Q13946). The experiment in a line: Inhibition of recombinant human PDE7A expressed in Sf9 cells measured after 10 mins by luminescence based assay.
Chain of High affinity 3',5'-cyclic-AMP phosphodiesterase 7A (Q13946 whole entry): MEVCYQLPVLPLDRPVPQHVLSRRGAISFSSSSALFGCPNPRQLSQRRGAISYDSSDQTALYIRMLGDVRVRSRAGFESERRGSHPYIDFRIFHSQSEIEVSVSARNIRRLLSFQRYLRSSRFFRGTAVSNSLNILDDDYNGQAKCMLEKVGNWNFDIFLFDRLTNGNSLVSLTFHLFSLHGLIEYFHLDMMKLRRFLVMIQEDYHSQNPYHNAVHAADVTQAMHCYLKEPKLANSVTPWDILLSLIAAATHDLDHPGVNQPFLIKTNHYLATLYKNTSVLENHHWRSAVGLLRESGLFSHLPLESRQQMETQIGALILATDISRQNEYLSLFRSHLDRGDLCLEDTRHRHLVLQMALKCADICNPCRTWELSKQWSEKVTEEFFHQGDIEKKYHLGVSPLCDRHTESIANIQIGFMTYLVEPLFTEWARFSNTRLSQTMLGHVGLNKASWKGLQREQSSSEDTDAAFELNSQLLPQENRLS
A short description of series [5]: Toxicity in Wistar rat assessed as total ambulations at 20 mg/kg, ip measured after 30 mins by open field test. The class given is organism-based. Particulars: in vivo, 0.5 h.
The subject of the next series is Rattus norvegicus. The experiment in a line: Antidepressant-like activity in Wistar rat assessed as reduction in immobility time at 20 mg/kg, ip measured after 30 mins by Forced swimming test. The class given is functional. Particulars: 0.5 h.
Series [6] can be described thus: Toxicity in Wistar rat assessed as rearings at 20 mg/kg, ip measured after 30 mins by open field test. Particulars: in vivo, 0.5 h. Type of series: organism-based.
The nature of series [7]: Toxicity in Wistar rat assessed as total distance travelled at 20 mg/kg, ip measured after 30 mins by open field test (reference value: 1897.3 +/-98.6 cm). Type of series: organism-based. Particulars: in vivo, 0.5 h.
Series [8] is described as follows: Toxicity in Wistar rat assessed as total ambulations at 3 to 10 mg/kg, ip measured after 60 mins by open field test. The class given is organism-based. Conditions: in vivo, 1 h.
Series [9] in a line: Metabolic stability of the compound in rat liver microsomes assessed as parent compound remaining at 50 uM preincubated for 5 mins followed by incubation with NADPH regenerating system for 120 mins by LC/MS analysis. Type of series: ADME, Microsome. Particulars: read-out: Stabilty.
A short description of series [10]: Toxicity in Wistar rat assessed as rearings at 3 to 10 mg/kg, ip measured after 60 mins by open field test. Type of series: organism-based. Particulars: in vivo, 1 h.
Series [11] can be described thus: Effective permeability of the compound at 200 uM incubated for 5 hrs by PAMPA based UPLC/MS analysis. Type of series: ADME. Particulars: read-out: Peff. (In general: The PAMPA barrier holds no transporters, so it reflects passive diffusion.)
In series [12] the target is T1, 5-hydroxytryptamine receptor 7. The experiment in a line: Agonist activity at recombinant human 5HT7 receptor expressed in CHO-K1 cells co-transfected with beta-lactamase reporter gene assessed as cAMP accumulation measured after 1 hr by LANCE TR-FRET assay. The class given is functional, cell-based. A general note: A reporter such as luciferase makes a cellular process visible.

For series [13] the target is unchanged. The series can be described thus: Antagonist activity at recombinant human 5HT7 receptor expressed in CHO-K1 cells co-transfected with beta-lactamase reporter gene assessed as inhibition of serotonin-induced cAMP accumulation measured after 1 hr by LANCE TR-FRET assay. Type of series: functional, cell-based. Particulars: filed as antagonist.
Series [14] shares this target. The series can be described thus: Binding affinity to 5HT7 receptor (unknown origin).
The target of series [15] is T2, 5-hydroxytryptamine receptor 1A. The series can be described thus: Binding affinity to 5HT-1A receptor (unknown origin).

Active and inactive are the calls of the source. The calls are words filed in the database; no cut-off is given here.

Chain of 3',5'-cyclic-AMP phosphodiesterase 4B (Q07343 whole entry): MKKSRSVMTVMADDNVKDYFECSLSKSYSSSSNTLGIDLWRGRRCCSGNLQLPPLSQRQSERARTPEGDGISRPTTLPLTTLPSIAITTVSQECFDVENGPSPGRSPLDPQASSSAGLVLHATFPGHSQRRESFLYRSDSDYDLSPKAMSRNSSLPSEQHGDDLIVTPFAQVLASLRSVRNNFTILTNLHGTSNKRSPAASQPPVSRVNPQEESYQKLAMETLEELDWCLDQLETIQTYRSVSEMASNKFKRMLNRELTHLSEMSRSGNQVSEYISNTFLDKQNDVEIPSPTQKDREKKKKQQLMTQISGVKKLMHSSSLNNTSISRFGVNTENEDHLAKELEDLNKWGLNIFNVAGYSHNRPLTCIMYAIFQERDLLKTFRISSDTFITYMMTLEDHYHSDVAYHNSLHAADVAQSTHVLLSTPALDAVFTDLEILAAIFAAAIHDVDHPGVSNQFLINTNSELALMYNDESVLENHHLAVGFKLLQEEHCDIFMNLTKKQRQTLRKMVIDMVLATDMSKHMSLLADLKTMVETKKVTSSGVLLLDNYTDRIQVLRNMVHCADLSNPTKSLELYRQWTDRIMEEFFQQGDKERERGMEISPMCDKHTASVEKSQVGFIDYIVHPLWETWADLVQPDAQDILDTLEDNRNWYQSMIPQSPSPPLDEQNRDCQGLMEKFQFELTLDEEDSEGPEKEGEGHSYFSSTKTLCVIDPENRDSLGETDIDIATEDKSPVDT
T1 sequence (P34969 whole entry): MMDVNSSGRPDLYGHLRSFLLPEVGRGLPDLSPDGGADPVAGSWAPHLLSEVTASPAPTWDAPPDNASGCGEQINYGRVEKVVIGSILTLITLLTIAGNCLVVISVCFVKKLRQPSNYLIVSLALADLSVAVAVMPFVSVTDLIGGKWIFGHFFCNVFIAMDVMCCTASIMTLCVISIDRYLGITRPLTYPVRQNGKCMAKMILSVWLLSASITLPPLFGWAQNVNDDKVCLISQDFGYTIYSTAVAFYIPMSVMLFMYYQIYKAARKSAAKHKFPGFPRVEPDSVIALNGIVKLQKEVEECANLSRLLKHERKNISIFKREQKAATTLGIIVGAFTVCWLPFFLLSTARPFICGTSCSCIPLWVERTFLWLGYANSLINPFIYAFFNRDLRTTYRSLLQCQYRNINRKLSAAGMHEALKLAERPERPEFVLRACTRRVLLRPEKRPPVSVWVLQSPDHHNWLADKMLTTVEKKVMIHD

As to `COc1ccccc1N1CCN(CCCC(=O)Nc2cccc(C(C)C)c2)CC1`, the Ki – broadly, a dissociation constant, usually derived from enzyme kinetics or from competition with a known ligand – in series [1] amounted to 157 nM; in series [2], 187 nM.
For `COc1ccccc1N1CCN(CCCC(=O)Nc2ccc(C(C)(C)C)cc2)CC1`, the results for the IC50 in [3] and in series [4] were 96 µM and 27 µM, respectively. In [1], this compound had an inhibition constant (Ki) of 1200 nM.
Consider `COc1ccccc1N1CCN(CCCCCC(=O)Nc2cccc(C(C)C)c2)CC1`, for which the Ki in [1] was 141 nM; in series [2], 34 nM.
As for `COc1ccccc1N1CCN(CCCCCC(=O)Nc2ccccc2O)CC1`, the results for the inhibitory constant (Ki) in [1] and in series [2] were 254 nM and 95 nM, respectively.
Turning to `COc1ccccc1N1CCN(CCCCC(=O)NCc2ccc(C(C)(C)C)cc2)CC1`, the Ki in series [1] stood at 391 nM; in series [2] it was 138 nM.
`CN(C)CCC[C@@]1(c2ccc(F)cc2)OCc2cc(C#N)ccc21` [ESCITALOPRAM]: the Activity entry is on record as “Non-Toxic” in series [5], “Non-Toxic” in series [6] and 2058.5 cm in series [7]. Moreover, in the series on Rattus norvegicus, the inhibition in vivo (usually how much of the control response was suppressed) at 20 mg/kg came out at 49%.
Consider `COc1ccccc1N1CCN(CCCCC(=O)Nc2ccc(C(C)C)cc2)CC1.Cl`, for which the Activity entry in [8] and in series [10] was “Non-Toxic” each time. The IC50 – broadly, the concentration that gives 50% inhibition – in series [3] is 80.4 µM; in series [4] it was 151 µM. For the same compound, the remaining at 2 h, 50 µM in series [9] is 90.1%. For the same compound, the Papp at 5 h, 200 µM in series [11] came to 10.5 ×10⁻⁶ cm/s.
As for `COc1ccccc1N1CCN(CCCCC(=O)Nc2cccc(C(C)(C)C)c2)CC1.Cl`, the values for the half-inhibitory concentration (IC50) in series [3] and in series [4] were 130 µM and above 200 µM, respectively. Further, the inhibition constant Ki worked out at 75 nM in series [1] and 16 nM in series [2]. Further, the remaining at 2 h, 50 µM in series [9] stood at 23.8%. Further, the outcome in series [12] was inactive. For the same compound, the Kb – broadly, the affinity of an antagonist, worked out from how it opposes an agonist – in [13] was 54 nM. The Papp at 5 h, 200 µM in series [11] turned out to be 4.8 ×10⁻⁶ cm/s.
As to `CCC(C)c1ccc(NC(=O)CCCCCN2CCN(c3ccccc3OC)CC2)cc1` (centres undefined), the Ki was determined as 260 nM in series [1] and 69 nM in [2].
The matching figures for `COc1ccccc1N1CCN(CCCC(=O)Nc2ccccc2O)CC1`: 471 nM and 405 nM.
As for `COc1ccccc1N1CCN(CCCC(=O)Nc2ccccc2C(N)=O)CC1`, the values for the Ki in series [1] and in series [2] were 1140 nM and 526 nM, respectively.
`COc1ccccc1N1CCN(CCCCCC(=O)Nc2cc(C(C)(C)C)ccc2O)CC1` had an inhibitory constant (Ki) in series [1] of 154 nM.
`CCC(C)c1ccc(NC(=O)CCCCN2CCN(c3ccccc3OC)CC2)cc1` (centres undefined): the 50% inhibitory concentration (IC50) in series [3] stood at 169 µM; in series [4], 126 µM. The values for the inhibitory constant (Ki) in [1] and in series [2] were 323 nM and 14 nM, respectively.
On to `COc1ccccc1CNC(=O)CCCCN1CCN(c2ccccc2OC)CC1`, for which the Ki is 366 nM in [1] and 82 nM in series [2].
The like results for `COc1ccccc1N1CCN(CCCCC(=O)Nc2ccccc2O)CC1` were, in that order, 300 nM and 31 nM.
The like results for `COc1ccccc1N1CCN(CCCC(=O)Nc2ccc(C(=O)OC(C)(C)C)cc2)CC1` were, in that order, 3280 nM and 287 nM.
As to `COc1ccccc1N1CCN(CCCCC(=O)Nc2cccc(C(C)C)c2)CC1.Cl`, the values for the IC50 in series [3] and in series [4] were 88.1 µM and above 200 µM, respectively. Besides, affinity in series [1] was put at a Ki of 151 nM. In series [9], the remaining at 2 h, 50 µM stood at 6.5%. The Papp at 5 h, 200 µM in series [11] was determined as 8.6 ×10⁻⁶ cm/s.
In the case of `COc1ccccc1N1CCN(CCCC(=O)Nc2cc(C(C)(C)C)ccc2O)CC1`, the IC50 is 69 µM in series [3] and 57 µM in series [4]. This compound also had a Ki in series [1] of 328 nM.
In the case of `CCC(C)c1ccc(NC(=O)CCCN2CCN(c3ccccc3OC)CC2)cc1` (centres undefined), the inhibitory constant (Ki) in series [1] turned out to be 354 nM; in series [2], 37 nM.
For `COc1ccccc1N1CCN(CCCCCC(=O)Nc2ccc(C(=O)OC(C)(C)C)cc2)CC1`, the results for the inhibition constant (Ki) in [1] and in series [2] were 799 nM and 125 nM, respectively.
Consider `COc1ccccc1CNC(=O)CCCCCN1CCN(c2ccccc2OC)CC1`, for which the Ki in series [1] was 515 nM; in series [2] it was 64 nM.
Turning to `COc1ccccc1N1CCN(CCCCC(=O)Nc2cc(C(C)(C)C)ccc2O)CC1`, the values for the IC50 in [3] and in [4] were 36.5 µM and above 200 µM, respectively. The inhibition constant (Ki) in [1] came out at 159 nM; in [2], 61 nM.
With `COc1ccccc1N1CCN(CCCC(=O)Nc2ccc(C(C)C)cc2)CC1`, the Ki in series [1] was 954 nM; in series [2], 150 nM.
The matching figures for `COc1ccccc1N1CCN(CCCCCC(=O)NCc2ccccc2O)CC1`: 289 nM and 70 nM.
With `COc1ccccc1N1CCN(CCCCC(=O)Nc2cccc(C(=O)OC(C)(C)C)c2)CC1`, in [1], the affinity, expressed as Ki, was 927 nM.
As for `COc1ccccc1N1CCN(CCCCC(=O)Nc2ccc(C(C)(C)C)cc2)CC1`, the 50% inhibitory concentration (IC50) in series [3] is 138 µM; in series [4], above 200 µM. Further, the inhibition constant (Ki) stood at 496 nM in [1] and 21 nM in [2].
For `CCn1cc(C(=O)O)c(=O)c2cc(F)c(N3CCNCC3)cc21` [NORFLOXACIN], the Papp at 5 h, 200 µM in [11] worked out at 0.6 ×10⁻⁶ cm/s.
Take `COc1ccccc1N1CCN(CCCCCC(=O)Nc2cccc(C(C)(C)C)c2)CC1`: the results for the Ki in series [1] and in series [2] were 190 nM and 53 nM, respectively.
The matching figures for `COc1ccccc1CNC(=O)CCCN1CCN(c2ccccc2OC)CC1`: 869 nM and 292 nM.
For `COc1ccccc1N1CCN(CCCC(=O)Nc2cccc(C(C)(C)C)c2)CC1`, the Ki in series [1] worked out at 130 nM; in [2] it was 224 nM.
`COc1ccccc1N1CCN(CCCCCC(=O)Nc2ccc(C(C)C)cc2)CC1`: the inhibition constant (Ki) is 434 nM in series [1] and 43 nM in series [2].
Take `COc1ccccc1N1CCN(CCCCC(=O)Nc2ccccc2C(N)=O)CC1`: the Ki was determined as 1870 nM in series [1] and 82 nM in [2].
As for `COc1ccccc1N1CCN(CCCCC(=O)NCc2ccccc2O)CC1`, the affinity in series [1], expressed as Ki, was 343 nM.
For the compound `COc1ccccc1N1CCN(CCCC(=O)NCc2ccccc2O)CC1`, the affinity in series [1] corresponds to a Ki of 319 nM.
Turning to `O=S(=O)(NCCCCN1CCN(c2nsc3ccccc23)CC1)c1c[nH]c2ncccc12`, the Ki came to 93 nM in series [14] and 78 nM in series [15].
Compound `COc1ccccc1N1CCN(CCCCCC(=O)Nc2ccc(C(C)(C)C)cc2)CC1` registered an inhibitory constant (Ki) in series [1] of 514 nM.

The record behind these values is ChEMBL document CHEMBL4765382, “Novel anilide and benzylamide derivatives of arylpiperazinylalkanoic acids as 5-HT/5-HT receptor antagonists and phosphodiesterase 4/7 inhibitors with procognitive and antidepressant activity” (Eur J Med Chem, 2020).
